The results in this text go back to PubChem BioAssay (NCI).

SMILES strings stand for the structures. Several values for one entry are separate records, joined by “and”; a condition that tells them apart may be missing. Equal entries are not always repeated.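 Cells were grown in 96-well plates and exposed to each compound for 48 hours at five concentrations; endpoints were interpolated linearly between bracketing concentrations, or set to the highest concentration if not reached. GI50: concentration for 50% inhibition of growth. The concentration for full growth arrest is given as TGI.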

Test systems include OVCAR-3 ovarian; SK-MEL-2 melanoma; IGROV1 ovarian; HOP-92 NSCLC; SF-295 CNS; KM12 colon; HCT-116 colon; HS 578T breast; OVCAR-4 ovarian; HOP-62 NSCLC.
What all share (experiment): NCI anticancer screen, dose series, 48 h

With `CC12CC(=O)Nc3ccccc3N1C(c1ccccc1)=NO2` (centres undefined), the TGI in the test with OVCAR-3 ovarian, with SK-MEL-2 melanoma, in the test on IGROV1 ovarian, in the test on HOP-92 NSCLC, with SF-295 CNS and with KM12 colon was above 100 µM each time. Besides, the TGI with HCT-116 colon, in the test with HS 578T breast, with OVCAR-4 ovarian and in the test with HOP-62 NSCLC was above 100 µM in each case.
For the molecule `C=C1C(=O)O[C@H]2[C@H]1CC/C(COC(=O)N[C@H]1C[C@H](O[C@H]3C[C@](O)(C(=O)CO)Cc4c(O)c5c(c(O)c43)C(=O)c3c(OC)cccc3C5=O)O[C@@H](C)[C@H]1O)=C\CC[C@@]1(C)O[C@@H]21`, the GI50 with OVCAR-3 ovarian was 2200 nM; with SK-MEL-2 melanoma, 7.97 µM; with IGROV1 ovarian, 5.77 µM; in the test on HOP-92 NSCLC, 838 nM; in the test with SF-295 CNS, 45.3 µM; in the test on KM12 colon, 13.2 µM. Further, the GI50 with HCT-116 colon was 1720 nM; with HS 578T breast, 9.93 µM; in the test with OVCAR-4 ovarian it was 3.47 µM; with HOP-62 NSCLC, 22.7 µM. Moreover, the TGI in the test with OVCAR-3 ovarian is 7.8 µM; in the test with SK-MEL-2 melanoma it was 17 µM; in the test on IGROV1 ovarian it was 19 µM; with HOP-92 NSCLC, 2.28 µM; in the test on SF-295 CNS it was above 50 µM; in the test with KM12 colon, 40.7 µM. Besides, the TGI in the test on HCT-116 colon was 5.58 µM; with HS 578T breast, 34 µM; with OVCAR-4 ovarian, 12.3 µM; in the test on HOP-62 NSCLC it was above 50 µM.
With `Nc1c(C(=O)c2cccc(C#CCN3CCCCC3)c2)cnn1-c1ccc(F)cc1`, the GI50 in the test with OVCAR-3 ovarian is above 25000 nM; in the test with SK-MEL-2 melanoma, above 25 µM; in the test on IGROV1 ovarian it was above 25 µM; in the test on HOP-92 NSCLC it was 10300 nM; with SF-295 CNS, above 25 µM; with KM12 colon, 18.7 µM. The GI50 was above 17700 nM in the test with HCT-116 colon, above 25 µM with HS 578T breast, above 22.6 µM in the test on OVCAR-4 ovarian and above 25 µM in the test on HOP-62 NSCLC. Moreover, the TGI with OVCAR-3 ovarian, with SK-MEL-2 melanoma, with IGROV1 ovarian, in the test with HOP-92 NSCLC, in the test on SF-295 CNS and in the test with KM12 colon was above 25 µM in each case. Also, the TGI in the test on HCT-116 colon, in the test with HS 578T breast, in the test with OVCAR-4 ovarian and in the test with HOP-62 NSCLC was above 25 µM each time.
In the case of `FC(F)(F)c1ccc(-c2nn3ncccc3c2-c2ccnc(Nc3ccc4c(c3)OCCO4)n2)cc1`, the GI50 with OVCAR-3 ovarian is 11600 nM; in the test on SK-MEL-2 melanoma, 11.6 µM; with IGROV1 ovarian, 5.19 µM; in the test with HOP-92 NSCLC it was 2020 nM; with SF-295 CNS it was 6.91 µM; with KM12 colon, 10.7 µM. In addition, the GI50 in the test on HCT-116 colon is 8150 nM; in the test with HS 578T breast, 10.9 µM; with OVCAR-4 ovarian, 10.2 µM; in the test with HOP-62 NSCLC, above 25 µM. In addition, the TGI in the test on OVCAR-3 ovarian was above 25 µM; with SK-MEL-2 melanoma it was above 25 µM; in the test on IGROV1 ovarian it was above 25 µM; in the test with HOP-92 NSCLC, 21.9 µM; in the test on SF-295 CNS, above 25 µM; in the test on KM12 colon it was above 25 µM. Further, the TGI with HCT-116 colon, in the test with HS 578T breast, with OVCAR-4 ovarian and in the test with HOP-62 NSCLC was above 25 µM throughout.
Take `CSc1ncnc2c1ncn2CC(=O)C1CCC2C3CCC4=CC(=O)CCC4(C)C3CCC12C` (centres undefined): the TGI was 25.8 µM in the test on OVCAR-3 ovarian; 11.6 µM with SK-MEL-2 melanoma; above 100 µM with IGROV1 ovarian; above 88.3 µM with HOP-92 NSCLC; 23.7 µM in the test on SF-295 CNS; 9.88 µM in the test on KM12 colon. Further, the TGI is 59.2 µM with HCT-116 colon, above 100 µM in the test on HS 578T breast, 21.3 µM with OVCAR-4 ovarian and above 30.1 µM in the test on HOP-62 NSCLC.
With `C=CC(C)(C)n1cc(C2=C(O)C(=O)C(c3cn(C(C)(C)C=C)c4ccccc34)=C(O)C2=O)c2ccccc21`, the TGI in the test with OVCAR-3 ovarian was found to be 4.48 µM; with SK-MEL-2 melanoma, 4.22 µM; in the test on IGROV1 ovarian, 7.15 µM; with HOP-92 NSCLC, 18.9 µM; with SF-295 CNS, 12.8 µM; in the test with KM12 colon, 13.5 µM. Also, the TGI with HCT-116 colon was above 33.9 µM; in the test on HS 578T breast, 5.11 µM; in the test with OVCAR-4 ovarian it was 6.92 µM; in the test on HOP-62 NSCLC, 8.43 µM.
As to `CCCCCCNCCCNc1c2cc(OC)ccc2nc2cccc([N+](=O)[O-])c12`, the GI50 with OVCAR-3 ovarian is 309 nM; with SK-MEL-2 melanoma, 0.048 µM; in the test with IGROV1 ovarian, 0.223 µM; in the test with HOP-92 NSCLC, 239 nM; with SF-295 CNS it was 0.163 µM; in the test with KM12 colon, 0.16 µM. Also, the GI50 is 38.4 nM with HCT-116 colon, 0.242 µM in the test with HS 578T breast, 0.0885 µM with OVCAR-4 ovarian and 0.124 µM in the test on HOP-62 NSCLC. In addition, the TGI is 0.297 µM and 1.05 µM with OVCAR-3 ovarian; 0.209 µM and 0.199 µM in the test with SK-MEL-2 melanoma; 0.534 µM and 0.655 µM with HOP-92 NSCLC; 0.413 µM and 1.03 µM in the test on SF-295 CNS; 0.508 µM and 0.472 µM in the test with KM12 colon; 0.155 µM and 1.01 µM with HCT-116 colon. Further, the TGI in the test on HS 578T breast was 1.47 µM and 0.786 µM; in the test on OVCAR-4 ovarian it was 0.346 µM and 0.238 µM; in the test on HOP-62 NSCLC, 0.371 µM and 0.449 µM.
In the case of `Cc1cc(CCl)c(C)cc1CCl`, the GI50 with OVCAR-3 ovarian is 1760 nM; with SK-MEL-2 melanoma it was 3.27 µM; in the test with IGROV1 ovarian it was 1.47 µM; with HOP-92 NSCLC, 2520 nM; in the test on SF-295 CNS, 0.84 µM; with KM12 colon it was 0.845 µM. Moreover, the GI50 with HCT-116 colon was 1480 nM; in the test with HS 578T breast it was 2.4 µM; in the test on OVCAR-4 ovarian it was 3.4 µM; in the test with HOP-62 NSCLC, 1.58 µM. Moreover, the TGI was 4.04 µM in the test on OVCAR-3 ovarian; 13.3 µM in the test on SK-MEL-2 melanoma; 6.25 µM in the test on IGROV1 ovarian; 9.55 µM in the test on HOP-92 NSCLC; 4.61 µM with SF-295 CNS; 2.42 µM in the test on KM12 colon. The TGI in the test with HCT-116 colon was found to be 6.58 µM; with HS 578T breast, 8.21 µM; in the test with OVCAR-4 ovarian, 12.8 µM; in the test on HOP-62 NSCLC, 3.79 µM.
Turning to `CC(Oc1ccc(Oc2cnc3ccc(Cl)cc3n2)cc1)C(=O)O` (centres undefined), the TGI in the test with OVCAR-3 ovarian, with SK-MEL-2 melanoma, in the test with IGROV1 ovarian, in the test with HOP-92 NSCLC, in the test on SF-295 CNS and in the test on KM12 colon was above 100 µM throughout. Also, the TGI in the test on HCT-116 colon, in the test on HS 578T breast, with OVCAR-4 ovarian and in the test with HOP-62 NSCLC was above 100 µM in each case.
